Read-outs that look alike come from different tables or passages of the source.
Tests used:
[1] = system: Beet Armyworm (Spodoptera exigua); assay: Insecticidal diet-surface test for beet armyworm; type: in vivo; settings: 120 h, second-instar larvae on treated diet, 50 μg/cm^2 on diet surface, 5 days after treatment, 8 insects per treatment, read-out: LAPHEG AVG % Mortality (50 μg/cm^2)
Summary of the method: (§1)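 Second-instar larvae placed on lepidopteran diet surface-treated with 50 μL of 2000 ppm compound in 9 acetone:1 water (stated as 50 μg/cm^2), eight wells per species. Held 5 days at 25° C, 50-55% RH, 16:8 h light:dark; mortality of 8 larvae scored as percent control.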

[2] = system: Corn Earworm (Helicoverpa zea); assay: Insecticidal diet-surface test for corn earworm; type: in vivo; settings: 120 h, read-out: HELIZE AVG % Mortality (50 μg/cm^2)
Summary of the method: as §1

[3] = second-instar larvae on treated diet, 50 μg/cm^2 on diet surface, 5 days after treatment, 8 insects per treatment

SMILES: CCOCN(C(=O)Nc1nc(OCC(F)(F)F)cc(OCC(F)(F)F)n1)c1ccc(C(F)(F)F)nc1 [Compound 90]
- mortality at 50 µg/cm2 [1]: 100%
- mortality at 50 µg/cm2 [2, 3]: 100%

SMILES: Cc1c(OCC(F)(F)F)nc(NC(=O)Nc2ccc(Br)cc2)nc1OCC(F)(F)F [Compound 139]
- mortality at 50 µg/cm2 [1]: 88%
- mortality at 50 µg/cm2 [2, 3]: 88%

SMILES: O=C(Nc1nc(OCC(F)(F)F)cc(OCC(F)(F)F)n1)Nc1c(Cl)cc(Br)cc1Cl [Compound 180]
- mortality at 50 µg/cm2 [1]: 100%
- mortality at 50 µg/cm2 [2, 3]: 100%

SMILES: CN(C(=O)Nc1nc(OCC(F)(F)C(F)F)cc(OCC(F)(F)C(F)F)n1)c1ccc(C(F)(F)F)cc1 [Compound 177]
- mortality at 50 µg/cm2 [1]: 100%
- mortality at 50 µg/cm2 [2, 3]: 100%

SMILES: O=C(Nc1ccc(OC(F)(F)F)cc1)Nc1nc(OCC(F)(F)C(F)(F)F)cc(OCC(F)(F)C(F)(F)F)n1 [Compound 104]
- mortality at 50 µg/cm2 [1]: 0%
- mortality at 50 µg/cm2 [2, 3]: 100%

SMILES: CN(C(=O)Nc1nc(OCC(F)(F)F)nc(OCC(F)(F)F)n1)c1ccc(Cl)cc1 [Compound 121, N′-[4,6-bis(2,2,2-trifluoroethoxy)-1,3,5-triazin-2-yl]-N-(4-chlorophenyl)-N-methylurea]
- mortality at 50 µg/cm2 [1]: 100%
- mortality at 50 µg/cm2 [2, 3]: 100%

SMILES: O=C(NNc1ccc(Cl)cc1)Nc1nc(OCC(F)(F)F)cc(OCC(F)(F)F)n1 [Compound 9]
- mortality at 50 µg/cm2 [1]: 100%
- mortality at 50 µg/cm2 [2, 3]: 88%

SMILES: O=C(Nc1ccc(C(F)(F)F)cc1)Nc1cc(OCC(F)(F)F)nc(OCC(F)(F)F)n1 [Compound 105]
- mortality at 50 µg/cm2 [1]: 100%
- mortality at 50 µg/cm2 [2, 3]: 0%

SMILES: CN(C(=O)N(C)c1nc(OCC(F)(F)F)cc(OCC(F)(F)F)n1)c1ccc(OC(F)(F)F)cc1 [Compound 11, N-[4,6-bis(2,2,2-trifluoroethoxy)pyrimidin-2-yl]-N,N′-dimethyl-N-[4-(trifluoromethoxy)phenyl]urea]
- mortality at 50 µg/cm2 [1]: 100%
- mortality at 50 µg/cm2 [2, 3]: 100%

SMILES: O=C(Nc1ccc(C(F)(F)F)cc1)Nc1nc(OCC(F)(F)F)cc(C(F)(F)F)n1 [Compound 102, N-(4-trifluoromethylphenyl)-N′-[4-trifluoromethyl-6-(2,2,2-trifluoroethoxy)pyrimidin-2-yl]urea]
- mortality at 50 µg/cm2 [1]: 0%
- mortality at 50 µg/cm2 [2, 3]: 100%

SMILES: O=C(Nc1nc(OCC(F)(F)F)cc(OCC(F)(F)F)n1)Nc1c(Cl)cc(OC(F)(F)F)cc1Cl [Compound 178]
- mortality at 50 µg/cm2 [1]: 100%
- mortality at 50 µg/cm2 [2, 3]: 100%

SMILES: CN(C(=O)Nc1nc(OCC(F)(F)F)cc(OCC(F)(F)F)c1F)c1ccc(C(F)(F)F)cc1 [Compound 184]
- mortality at 50 µg/cm2 [1]: 100%
- mortality at 50 µg/cm2 [2, 3]: 100%

SMILES: O=C(Nc1nc(OCC(F)(F)F)cc(OCC(F)(F)F)n1)N(O)c1ccc(Cl)cc1 [Compound 64, N′-[4,6-bis(2,2,2-trifluoroethoxy)pyrimidin-2-yl]-N-(4chlorophenyl)-N-hydroxyurea]
- mortality at 50 µg/cm2 [1]: 100%
- mortality at 50 µg/cm2 [2, 3]: 100%

SMILES: CCOC(=O)N(C(=O)Nc1nc(OCC(F)(F)F)cc(OCC(F)(F)F)n1)c1ccc(C(F)(F)F)cc1 [Compound 35]
- mortality at 50 µg/cm2 [1]: 100%
- mortality at 50 µg/cm2 [2]: 100%

SMILES: CCOCN(C(=O)Nc1ccc(C(F)(F)F)cc1)c1nc(OCC(F)(F)F)cc(OCC(F)(F)F)n1 [Compound 18]
- mortality at 50 µg/cm2 [1]: 100%
- mortality at 50 µg/cm2 [2, 3]: 100%

SMILES: O=C(Nc1ccc(C(F)(F)F)cc1)Nc1nc(OCC(F)(F)C(F)(F)F)cc(OCC(F)(F)C(F)(F)F)n1 [Compound 174]
- mortality at 50 µg/cm2 [1]: 0%
- mortality at 50 µg/cm2 [2, 3]: 100%

SMILES: CC(=O)OCN(C(=O)Nc1ccc(C(F)(F)F)cc1)c1nc(OCC(F)(F)F)cc(OCC(F)(F)F)n1 [Compound 13]
- mortality at 50 µg/cm2 [1]: 100%
- mortality at 50 µg/cm2 [2, 3]: 100%

SMILES: CN(C(=S)Nc1nc(OCC(F)(F)F)cc(OCC(F)(F)F)n1)c1ccc(Br)cc1 [Compound 132]
- mortality at 50 µg/cm2 [1]: 100%
- mortality at 50 µg/cm2 [2, 3]: 100%

SMILES: CN(C(=O)Nc1cc(OCC(F)(F)F)nc(OCC(F)(F)F)n1)c1ccc(OC(F)(F)F)cc1 [Compound 106]
- mortality at 50 µg/cm2 [1]: 100%
- mortality at 50 µg/cm2 [2, 3]: 100%

SMILES: CC(C)OCN(C(=O)Nc1nc(OCC(F)(F)F)cc(OCC(F)(F)F)n1)c1ccc(C(F)(F)F)cc1 [Compound 53]
- mortality at 50 µg/cm2 [1]: 100%
- mortality at 50 µg/cm2 [2, 3]: 100%

SMILES: CN(C(=O)Nc1nc(OCC(F)(F)F)cc(OCC(F)(F)F)n1)c1ccc(C(F)(F)F)cc1Cl [Compound 160]
- mortality at 50 µg/cm2 [1]: 100%
- mortality at 50 µg/cm2 [2, 3]: 100%

SMILES: CC(C)OCN(C(=O)N(COCc1ccccc1)c1nc(OCC(F)(F)F)cc(OCC(F)(F)F)n1)c1ccc(Br)cc1 [Compound 66]
- mortality at 50 µg/cm2 [1]: 100%
- mortality at 50 µg/cm2 [2, 3]: 100%

SMILES: CN(C(=O)Nc1cc(C(F)(F)F)cc(OCC(F)(F)F)n1)c1ccc(Br)nc1 [Compound 169]
- mortality at 50 µg/cm2 [1]: 100%
- mortality at 50 µg/cm2 [2, 3]: 100%

SMILES: O=C(Nc1ccc(OC(F)(F)F)cc1)Nc1cc(C(F)(F)F)cc(OCC(F)(F)F)n1 [Compound 163]
- mortality at 50 µg/cm2 [1]: 100%
- mortality at 50 µg/cm2 [2, 3]: 100%

SMILES: CN(C(=O)Nc1nc(OCC(F)(F)F)cc(OCC(F)(F)F)n1)c1ccc(C(F)(F)C(F)(F)F)cc1 [Compound 152]
- mortality at 50 µg/cm2 [1]: 100%
- mortality at 50 µg/cm2 [2, 3]: 100%

SMILES: COCCOCN(C(=O)Nc1nc(OCC(F)(F)F)cc(OCC(F)(F)F)n1)c1ccc(C(F)(F)F)cc1 [Compound 62]
- mortality at 50 µg/cm2 [1]: 100%
- mortality at 50 µg/cm2 [2, 3]: 100%

SMILES: CN(C(=O)Nc1nc(OCC(F)(F)F)cc(OCC(F)(F)F)n1)c1ccc(C(F)(F)F)c(F)c1 [Compound 154]
- mortality at 50 µg/cm2 [1]: 100%
- mortality at 50 µg/cm2 [2, 3]: 100%

SMILES: O=C(Nc1ccc(Cl)nc1)Nc1nc(OCC(F)(F)F)cc(OCC(F)(F)F)n1 [Compound 49]
- mortality at 50 µg/cm2 [1]: 100%
- mortality at 50 µg/cm2 [2, 3]: 100%

SMILES: CN(C(=S)Nc1nc(OCC(F)(F)F)cc(OCC(F)(F)F)n1)c1ccc(C(F)(F)F)cc1 [Compound 131, N′-[4,6-bis(2,2,2-trifluoroethoxy)pyrimidin-2-yl]-N-methyl-N-[4-(trifluoromethyl)phenyl]thiourea]
- mortality at 50 µg/cm2 [1]: 100%
- mortality at 50 µg/cm2 [2, 3]: 100%

SMILES: [2H]C([2H])([2H])N(C(=O)Nc1nc(OCC(F)(F)F)cc(OCC(F)(F)F)n1)c1ccc(C(F)(F)F)cc1 [Compound 96]
- mortality at 50 µg/cm2 [1]: 100%
- mortality at 50 µg/cm2 [2, 3]: 100%

SMILES: COC(=O)c1ccc(N(C)C(=O)Nc2nc(OCC(F)(F)F)cc(OCC(F)(F)F)n2)cc1 [Compound 82]
- mortality at 50 µg/cm2 [1]: 100%
- mortality at 50 µg/cm2 [2, 3]: 0%

SMILES: CN(C(=O)Nc1nc(OCC(F)(F)F)cc(OCC(F)(F)F)n1)c1ccc(Cl)c(Cl)c1 [Compound 85]
- mortality at 50 µg/cm2 [1]: 100%
- mortality at 50 µg/cm2 [2, 3]: 100%

SMILES: CN(C(=O)Nc1cc(OCC(F)(F)F)nc(OCC(F)(F)F)n1)c1ccc(Br)cc1 [Compound 108]
- mortality at 50 µg/cm2 [1]: 100%
- mortality at 50 µg/cm2 [2, 3]: 100%

SMILES: CCN(C(=O)Nc1nc(OCC(F)(F)F)cc(OCC(F)(F)F)n1)c1ccc(Br)nc1 [Compound 46]
- mortality at 50 µg/cm2 [1]: 100%
- mortality at 50 µg/cm2 [2, 3]: 100%

SMILES: CCOCN(C(=O)Nc1nc(OCC(F)(F)F)cc(OCC(F)(F)F)n1)c1ccc(Br)cc1 [Compound 74]
- mortality at 50 µg/cm2 [1]: 100%
- mortality at 50 µg/cm2 [2, 3]: 100%

SMILES: COCN(C(=O)Nc1nc(OCC(F)(F)F)cc(OCC(F)(F)F)n1)c1ccc(OC(F)(F)F)cc1 [Compound 45]
- mortality at 50 µg/cm2 [1]: 100%
- mortality at 50 µg/cm2 [2, 3]: 100%

SMILES: COCN(C(=O)Nc1nc(OCC(F)(F)F)cc(OCC(F)(F)F)n1)c1ccc(C(F)(F)F)nc1 [Compound 91]
- mortality at 50 µg/cm2 [1]: 100%
- mortality at 50 µg/cm2 [2, 3]: 100%

SMILES: O=C(Nc1ccc(OC(F)(F)F)cc1)Nc1nc(OCC(F)(F)F)c(Cl)c(OCC(F)(F)F)n1 [Compound 136]
- mortality at 50 µg/cm2 [1]: 100%
- mortality at 50 µg/cm2 [2, 3]: 100%

SMILES: CN(C(=O)Nc1nc(OCC(F)(F)F)cc(OCC(F)(F)F)n1)c1ccc(Br)cc1 [Compound 41, N′-[4,6-bis(2,2,2-trifluoroethoxy)pyrimidin-2-yl]-N-methyl-N-(4-bromophenyl)urea]
- mortality at 50 µg/cm2 [1]: 100%
- mortality at 50 µg/cm2 [2, 3]: 100%

SMILES: CN(C(=O)Nc1nc(OCC(F)(F)F)cc(OCC(F)(F)F)n1)c1ccc(C(F)(F)F)cc1F [Compound 161]
- mortality at 50 µg/cm2 [1]: 100%
- mortality at 50 µg/cm2 [2, 3]: 100%

SMILES: CN(C(=O)Nc1nc(OCC(F)(F)F)cc(OCC(F)(F)F)n1)c1ccc(I)cn1 [Compound 126]
- mortality at 50 µg/cm2 [1]: 100%
- mortality at 50 µg/cm2 [2, 3]: 100%

SMILES: CN(C(=O)Nc1nc(OCC(F)(F)F)cc(OCC(F)(F)F)n1)c1ccc(F)cc1 [Compound 86]
- mortality at 50 µg/cm2 [1]: 100%
- mortality at 50 µg/cm2 [2, 3]: 100%

SMILES: Cc1c(OCC(F)(F)F)nc(NC(=O)N(C)c2ccc(OC(F)(F)F)cc2)nc1OCC(F)(F)F [Compound 142]
- mortality at 50 µg/cm2 [1]: 100%
- mortality at 50 µg/cm2 [2, 3]: 100%

SMILES: O=C(Nc1ccc(OCC(F)F)cc1)Nc1nc(OCC(F)(F)F)cc(OCC(F)(F)F)n1 [Compound 15]
- mortality at 50 µg/cm2 [1]: 75%
- mortality at 50 µg/cm2 [2, 3]: 50%

SMILES: CCOCN(C(=O)Nc1nc(OCC(F)(F)F)cc(OCC(F)(F)F)n1)c1ccc(OC(F)(F)F)cc1 [Compound 44]
- mortality at 50 µg/cm2 [1]: 100%
- mortality at 50 µg/cm2 [2, 3]: 100%

SMILES: O=C(Nc1ccc(C(F)(F)F)cc1)Nc1cc(C(F)(F)F)cc(OCC(F)(F)F)n1 [Compound 164]
- mortality at 50 µg/cm2 [1]: 88%
- mortality at 50 µg/cm2 [2, 3]: 100%
